Target: tau (Homo sapiens, UniProt P10636, P618L)
Assay: heparin-induced fibrillization, ThT fluorescence
Type: biochemical

Sequence of tau (P10636 561-689 P618L): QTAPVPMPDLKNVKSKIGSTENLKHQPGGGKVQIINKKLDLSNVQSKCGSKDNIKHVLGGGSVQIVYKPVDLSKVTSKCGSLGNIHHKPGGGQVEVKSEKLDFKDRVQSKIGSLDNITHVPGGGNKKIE

In the case of `C/C=C(/C=O)[C@H](CC=O)CC(=O)OCCc1ccc(O)cc1` [(+)-oleocanthal], the IC50 is reported as roughly 3.5 µM.

`C/C=C(/C=O)[C@@H](CC=O)CC(=O)OCCc1ccc(O)cc1` [compound 1, (-)-oleocanthal] was tested, and the IC50 was roughly 2.9 µM.

— paper PMC2758489 (Journal of neurochemistry, 2009)
